Converted amounts (≈) assume the structure as drawn. Like-named read-outs stand apart in the source and are kept apart here.
System: Mycobacterium tuberculosis H37Rv
Experiment: Microtiter dilution MIC assay in GAST-Fe and 7H9-based media
Type: cell-based
Details: for MIC (Gast/Fe) Week 2: GAST-Fe medium pH 6.6, read after week 2; for MIC (Gast/Fe) Week 1: GAST-Fe medium pH 6.6, read after week 1; for MIC: Mycobacterium tuberculosis, H37RV

Question: For c1ccc(NCc2ccc(Oc3ccccn3)cc2)cc1 [Compound 2a, N-(4-(pyridin-2-yloxy)benzyl) aniline], which “MIC (Gast/Fe) Week 2” value is on record?
Answer: 37 µM (≈ 10.2 µg/mL)

Question: For COc1cccc(NCc2ccc(Oc3ccccn3)cc2)c1 [Compound 2c, 3-methoxy-N-(4-(pyridin-2-yloxy)benzyl) aniline], which “MIC (Gast/Fe) Week 2” value is on record?
Answer: 37 µM (≈ 11.3 µg/mL)

Question: Which “MIC (Gast/Fe) Week 1” value does the source give for Cc1ccc(NCc2ccc(Oc3ccccn3)cc2)cc1 [Compound 2d, 4-methyl-N-(4-(pyridin-2-yloxy)benzyl) aniline] here?
Answer: 22 µM (≈ 6.39 µg/mL)

Question: Which “MIC (Gast/Fe) Week 2” value does the source give for Clc1ccc(NCc2ccc(Oc3ccccn3)cc2)cc1 [Compound 2g, 4-chloro-N-(4-(pyridin-2-yloxy)benzyl) aniline] here?
Answer: 40 µM (≈ 12.4 µg/mL)

Question: Clc1cccc(NCc2ccc(Oc3ccccn3)cc2)c1 [Compound 2h, 3-chloro-N-(4-(pyridin-2-yloxy)benzyl) aniline] was tested. Which “MIC (Gast/Fe) Week 2” value did it give?
Answer: 40 µM (≈ 12.4 µg/mL)

Question: What does the source list for Clc1ccccc1NCc1ccc(Oc2ccccn2)cc1 [Compound 2i, 2-chloro-N-(4-(pyridin-2-yloxy)benzyl) aniline]?
Answer: MIC (Gast/Fe) Week 1: 20 µM (≈ 6.22 µg/mL); MIC (Gast/Fe) Week 2: 20 µM (≈ 6.22 µg/mL)

Question: How did the “MIC (Gast/Fe) Week 2” value turn out when Fc1ccc(NCc2ccc(Oc3ccccn3)cc2)cc1 [Compound 2j, 4-fluoro-N-(4-(pyridin-2-yloxy)benzyl) aniline] was run?
Answer: 25 µM (≈ 7.36 µg/mL)

Question: For Brc1cccc(NCc2ccc(Oc3ccccn3)cc2)c1 [Compound 2m, 3-bromo-N-(4-(pyridin-2-yloxy)benzyl) aniline], which “MIC (Gast/Fe) Week 2” value is on record?
Answer: 35 µM (≈ 12.4 µg/mL)

Question: Which MIC (pH 6.6, read-out: MIC (Gast/Fe) Week 1) does the source give for Oc1cc(Cl)ccc1Oc1ccc(Cl)cc1Cl [Triclosan, 2,4,4׳- trichloro- 2׳- hydroxy diphenyl ether, reference compound] here?
Answer: 43 µM (≈ 12.5 µg/mL)

Question: And the MIC (pH 6.6, read-out: MIC (Gast/Fe) Week 2)?
Answer: 43 µM (≈ 12.5 µg/mL)

Question: What about the MIC (read-out: MIC (7H9/ADC/Tween) Week 1) of the same molecule?
Answer: 22 µM (≈ 6.37 µg/mL)

Question: What about the MIC (read-out: MIC (7H9/ADC/Tween) Week 2) of the same molecule?
Answer: 43 µM (≈ 12.5 µg/mL)
